We go through four molecules from patent US20250136652A1, “FUSION PROTEIN FOR TARGETING RECOMBINANT PROTEINS FOR DEGRADATION” (The Regents of the University of California, priority 2022, published 2025).

In test [1] the test system is STUD degradation of GFP (ubiquitin proteasome pathway). The test is described as follows: Inhibitor assay: rescue of GFP fluorescence in Jurkat T cells expressing SynZip STUD and GFP target. It counts as cell-based. The settings on record: 5 hours; for GFP fluorescence rescue relative to DMSO vehicle control: cells express functional STUD and GFP target. On the procedure:
FIG. 3: STUD degradation of GFP is mediated by the cullins in UPP. Representative flow cytometry distributions of GFP fluorescence of Jurkat T cells expressing the SynZip STUD described in FIG. 2B treated with one of three drugs or a DMSO vehicle control. Distributions are representative of three independent experiments.
Using the 2 plasmid system as described above, we lentivirally transduce Jurkat T cells. 72 hours after removal of lentivirus, we treat these Jurkat T cells and an untransduced control cell line with either 5 μM of the proteasomal inhibitor MG-132, 1 μM of the cullin ring ligase inhibitor MLN4924, 100 nM of the lysosomal inhibitor Bafilomycin A1, or DMSO vehicle control and incubate at 37 C for 5 hours. […] FIG. 3.
Flow cytometry: All flow cytometry data was obtained using a LSR Fortessa (BD Biosciences). All assays were run in a 96-well round bottom plate (Fisher Scientific #08-772-2C). Samples were prepared by pelleting cells in the plate using centrifugation at 400×g for 4 minutes. Supernatant was then removed and 200 μL of PBS (UCSF Cell Culture facility) was used to wash cells. The cells were again pelleted as described above and supernatant was removed. Cells were resuspended in 120 μL of Flow buffer (PBS+2% FBS) and mixed by pipetting prior to flow cytometry assay.
Inhibitor Assays: 100,000 cells were plated in a 96 well round bottom plate with either 5 μM MG-132 (Sigma-Aldrich #M7449-200UL), 1 μM MLN4924 (Active Biochem #A-1139), 100 nM Bafilomycin A1 (Enzo Life Sciences #BML-CM110-0100), or DMSO vehicle control and incubated at 37 C for 5 hours. After incubation, cells were pelleted by centrifugation at 400×g for 4 minutes. Supernatant was then removed and cells were washed once with 200 μL PBS. Cells were pelleted again (400×g for 4 minutes) and resuspended in flow buffer (PBS+2% FBS) for assay by flow cytometry.

Test [2] relates to STUD knockdown of anti-CD19 4-1BB CD3zeta CAR. The test is described as follows: MLN4924 rescue of STUD knockdown of CD19BBz CAR expression in CD8+ primary T cells. The class given is cell-based, human. The settings on record: 1 μM MLN4924, 5 hours, 37 C. As for the experimental part: FIG. 4D. Plasmid in FIG. 4A is transduced into CD8+ primary T cells and anti-CD19 4-1BB CD3zeta CAR expression and activation is assayed. Left: Cullin inhibitor MLN4924 is added to engineered T cells to rescue degradation of CAR by STUD. […] Black bars represent each condition with DMSO vehicle control. Middle: Engineered T cells are cocultured with NALM6 target cells for 72 hours and lysis is measured by flow cytometry. Lysis is calculated relative to lysis of NALM6 cells cultured with UnT T cells. Right: Median fluorescence of T cell activation marker CD25 after coculture is measured by antibody stain for CD25 and flow cytometry.
Engineered CD8+ T cells expressing were cocultured with NALM6 target cells and measured activation of the CAR by quantifying target cell lysis and expression of the T cell activation marker CD25.
Inhibitor Assays: 100,000 cells were plated in a 96 well round bottom plate with either 5 μM MG-132 (Sigma-Aldrich #M7449-200UL), 1 μM MLN4924 (Active Biochem #A-1139), 100 nM Bafilomycin A1 (Enzo Life Sciences #BML-CM110-0100), or DMSO vehicle control and incubated at 37 C for 5 hours. After incubation, cells were pelleted by centrifugation at 400×g for 4 minutes. Supernatant was then removed and cells were washed once with 200 μL PBS. Cells were pelleted again (400×g for 4 minutes) and resuspended in flow buffer (PBS+2% FBS) for assay by flow cytometry. […]

Test [3] relates to NALM6 target cells. Briefly: MLN4924 dose response: ON switch CAR lysis of NALM6 target cells. The settings on record: MLN4924 1 μM to 0.015625 μM; 72 hours at 37 C; CD8+ T cells with antiCD19BBz CAR-SynZip and memSTUD. The class given is cell-based, human. On the procedure: We engineer CD8+ primary human T cells that express an antiCD19BBz CAR fused to a SynZip and a STUD to recognizes the SynZip. As a control, the CD8+ primary human T cells that express the same CAR without the SynZip and the SynZip STUD were also engineered. Both these cell lines were cocultured and an untransduced (UnT) control with NALM6 target cells for 72 hours at 37 C in the presence of various concentrations of MLN4924. Lysis of target cells was calculated by each line relative to NALM6 cells cultured alone by flow cytometry.
CD8+ primary human T cells were engineered with an antiCD19BBz CAR fused to a SynZip and a memSTUD that binds the SynZip using the same plasmids outlined in FIG. 14A by lentiviral transduction. As a control, we also lentivirally transduce CD8+ primary human T cells with an antiCD19BBz and a SynZip memSTUD which cannot bind the CAR. These engineered cells and an untransduced control were cocultured with NALM6 target cells for 72 hours at 37 C in the presence of MLN4924 ranging from 1 μM to 0.015625 μM and a DMSO vehicle control. After coculture, target cell lysis was assayed by flow cytometry. Specific target cell lysis of each cell line relative to NALM6 cells cultured alone in the same conditions was then calculated.
Co-culture assays: For all assays, T cells and target cells were co-cultured at a 1:1 ratio with cell numbers varying per assay. […]

The target in test [4] is GFP fused to a heterodimeric SynZip protein complementary to the binding domain on the STUD. The test is described as follows: cell-based or functional assay.
Sequence of GFP fused to a heterodimeric SynZip protein complementary to the binding domain on the STUD (chain, as listed by the source): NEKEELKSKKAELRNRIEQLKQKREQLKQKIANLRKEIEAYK

Residues, ends and D or L forms follow the SMILES beside them. *: point of attachment. Cbz = O=C(OCc1ccccc1)*

As for `CO/C1=C\C(C)=C\[C@@H](C)[C@@H](O)[C@@H](C)C/C(C)=C/C=C/[C@H](OC)[C@@H]([C@@H](C)[C@@H](O)[C@H](C)[C@@]2(O)C[C@@H](O)[C@H](C)[C@@H](C(C)C)O2)OC1=O` [Bafilomycin A1], the “GFP fluorescence change relative to DMSO vehicle control” value in test [1] (100 nM Bafilomycin A1, 37 C) is on record as “No changes to GFP fluorescence”.
With `CC(C)C[C@@H](C=O)NC(=O)[C@H](CC(C)C)NC(=O)[C@H](CC(C)C)NC(=O)OCc1ccccc1` [MG-132] (Cbz-Leu-Leu-Leu-aldehyde), in test [1] (5 μM MG-132, 37 C), the “GFP fluorescence rescue relative to DMSO vehicle control” value is recorded as “can indeed be rescued”.
With `NS(=O)(=O)OC[C@@H]1C[C@@H](n2ccc3c(N[C@H]4CCc5ccccc54)ncnc32)C[C@@H]1O` [MLN4924], in test [2], the “rescue of STUD knockdown of CAR expression” value is recorded as “can rescue STUD knockdown of CAR expression”. Moreover, in test [3], the “specific target cell lysis by CAR” value is listed as “dose dependent”. Further, the “GFP fluorescence rescue relative to DMSO vehicle control” value in test [1] (1 μM MLN4924, 37 C) is recorded as “can indeed be rescued”.

B1: synZIP STUD (Synthetic Targeter of Ubiquitination and Degradation) (designed binder)
chain: SIAATLENDLARLENENARLERDIANLERDLARLEREEAYFGSGSGSGSGSRRRG
In the case of B1, the fold change of median normalized GFP fluorescence (GFP/tagBFP), flow cytometry, Jurkat T cells in test [4] is 42 fold.
